According to patent publication EP1147080B1 (Wyeth Holdings Corporation, priority 1999, dated 2000):

What was measured:
[1] = target: TNF-α converting enzyme (TACE) (Homo sapiens, UniProt P78536); test: Test procedure for measuring TACE inhibition (fluorescent peptidyl substrate); assay type: biochemical; details: second table; IC50 (nM) per footnote a
MMP-13 = MMP-13 (Homo sapiens, UniProt P45452); test: MMP-13 inhibition (thiopeptide or fluorescent peptide substrate); assay type: biochemical; details: read-out: MMP13; for inhibition at 10 µM: % @ 10µM per footnote a
Excerpt: Alternatively, a fluorescent peptide substrate is used.

THP-1 cells = test: Human monocytic THP-1 cell differentiation assay for soluble proteins (THP soluble protein assay), LPS-stimulated, TNF-α ELISA; assay type: cell-based; details: Homo sapiens, THP-1; at 3 uM; percent change from vehicle positive control; read-out: TNFalpha at 3 uM) THP (percent change)
MMP-1 = target: T1, MMP-1 (Homo sapiens, UniProt P03956); test: MMP-1 inhibition (thiopeptide or fluorescent peptide substrate); details: for inhibition at 10 µM: read-out: MMP1
T1 sequence (P03956 100-469): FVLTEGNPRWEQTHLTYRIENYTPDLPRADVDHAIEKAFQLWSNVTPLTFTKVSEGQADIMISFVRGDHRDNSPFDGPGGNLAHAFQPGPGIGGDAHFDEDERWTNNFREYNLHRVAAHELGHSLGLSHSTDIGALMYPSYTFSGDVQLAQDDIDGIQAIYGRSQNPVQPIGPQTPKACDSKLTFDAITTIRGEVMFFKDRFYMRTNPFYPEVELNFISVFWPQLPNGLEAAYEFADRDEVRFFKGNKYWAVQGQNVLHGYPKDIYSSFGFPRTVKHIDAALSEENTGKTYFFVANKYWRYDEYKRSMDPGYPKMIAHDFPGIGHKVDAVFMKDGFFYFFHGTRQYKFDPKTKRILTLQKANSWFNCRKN
Description: (§1) The enzyme activity is measured by the rate of the color increase. The thiopeptide substrate is made up fresh as a 20 mM stock in 100% DMSO and the DTNB is dissolved in 100% DMSO as a 100 mM stock and stored in the dark at room temperature. Both the substrate and DTNB are diluted together to 1 mM with substrate buffer (50 mM HEPES pH 7.5, 5 mM CaCl2) before use. The stock of enzyme is diluted with buffer (50 mM HEPES, pH 7.5, 5 mM CaCl2, 0.02% Brij) to the desired final concentration.
(§2) Alternatively, a fluorescent peptide substrate is used. In this test procedure, the peptide substrate contains a fluorescent group and a quenching group. Upon cleavage of the substrate by an MMP, the fluorescence that is generated is quantitated on the fluorescence plate reader. The assay is run in HCBC assay buffer (50mM HEPES, pH 7.0, 5 mM Ca^+2, 0.02% Brij, 0.5% Cysteine), with human recombinant MMP-1, MMP-9, or MMP-13. The substrate is dissolved in methanol and stored frozen in 1 mM aliquots. For the assay, substrate and enzymes are diluted in HCBC buffer to the desired concentrations. Compounds are added to the 96 well plate containing enzyme and the reaction is started by the addition of substrate.
(§3) For either the thiopeptide or fluorescent peptide test procedures, the slope of the line is calculated and represents the reaction rate. […] The mean (x±sem) of the control rate is calculated and compared for statistical significance (p<0.05) with drug-treated rates using Dunnett's multiple comparison test.

MMP-9 = MMP-9 (Homo sapiens, UniProt P14780); test: MMP-9 inhibition (thiopeptide or fluorescent peptide substrate); details: for inhibition at 10 µM: read-out: MMP9
MMP-9, sequence (P14780 94-707): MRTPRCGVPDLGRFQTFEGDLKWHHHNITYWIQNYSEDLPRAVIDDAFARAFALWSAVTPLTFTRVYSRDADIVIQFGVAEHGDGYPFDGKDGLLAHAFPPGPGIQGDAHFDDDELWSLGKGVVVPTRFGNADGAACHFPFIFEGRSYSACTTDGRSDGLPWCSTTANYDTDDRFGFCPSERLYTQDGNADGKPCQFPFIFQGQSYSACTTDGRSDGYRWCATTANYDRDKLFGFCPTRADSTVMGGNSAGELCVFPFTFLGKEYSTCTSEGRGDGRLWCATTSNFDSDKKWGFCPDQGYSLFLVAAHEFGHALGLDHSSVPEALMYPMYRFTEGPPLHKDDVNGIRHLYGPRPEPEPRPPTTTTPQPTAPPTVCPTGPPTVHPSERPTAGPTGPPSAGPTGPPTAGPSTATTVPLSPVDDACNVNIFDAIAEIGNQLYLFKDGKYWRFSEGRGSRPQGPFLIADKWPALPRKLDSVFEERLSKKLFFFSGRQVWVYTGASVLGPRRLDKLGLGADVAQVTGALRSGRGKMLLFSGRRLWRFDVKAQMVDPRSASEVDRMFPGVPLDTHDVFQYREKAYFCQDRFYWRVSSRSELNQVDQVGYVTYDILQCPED
Description: as §1, §2, §3

TNF-α converting enzyme (TACE), sequence (P78536 215-824): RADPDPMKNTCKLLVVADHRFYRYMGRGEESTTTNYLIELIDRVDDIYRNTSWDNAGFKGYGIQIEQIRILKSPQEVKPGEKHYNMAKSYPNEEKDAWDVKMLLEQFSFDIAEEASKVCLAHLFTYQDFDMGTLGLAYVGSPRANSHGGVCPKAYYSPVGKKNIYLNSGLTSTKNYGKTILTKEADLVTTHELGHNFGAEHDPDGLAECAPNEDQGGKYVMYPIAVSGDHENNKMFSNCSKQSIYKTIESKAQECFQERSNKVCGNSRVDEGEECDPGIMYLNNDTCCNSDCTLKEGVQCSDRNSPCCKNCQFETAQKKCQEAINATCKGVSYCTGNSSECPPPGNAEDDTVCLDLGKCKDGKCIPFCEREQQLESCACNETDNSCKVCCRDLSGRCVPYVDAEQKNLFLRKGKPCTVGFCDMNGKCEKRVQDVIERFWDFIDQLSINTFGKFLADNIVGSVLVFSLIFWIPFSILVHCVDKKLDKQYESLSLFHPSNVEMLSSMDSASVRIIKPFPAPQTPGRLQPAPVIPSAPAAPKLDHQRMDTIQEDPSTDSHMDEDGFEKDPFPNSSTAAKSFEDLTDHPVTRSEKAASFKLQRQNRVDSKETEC

| Structure (SMILES) | IC50 [1] [nM] | IC50 (MMP-13) [nM] | inhibition at 10 µM (MMP-1) [%] | IC50 (MMP-9) [nM] | IC50 (MMP-1) [nM] | inhibition at 10 µM (MMP-13) [%] | inhibition at 10 µM (MMP-9) [%] | inhibition at 3 µM (THP-1 cells) [%] |
| --- | --- | --- | --- | --- | --- | --- | --- | --- |
| CC#CCOc1ccc(S(=O)(=O)C(CCCCCC#N)C(=O)NO)cc1 (stereo not drawn) [Example 72, 2-{[4-(2-butynyloxy)phenyl]sulfonyl}-7-cyano-N-hydroxy heptanamide] | 14.2 | 341 | 46.2 | 1360 | – | – | – | 54 |
| CC#CCOc1ccc([S+]([O-])C(C(=O)NO)C2CCCCC2)cc1 (stereo not drawn) [Example 74, 2-{[4-(2-butynyloxy)phenyl]sulfinyl}-2-cyclohexyl-N-hydroxyacetamide] | 52 | 93.5 | – | 336 | 1500 | – | – | 31 |
| CC#CCOc1ccc(SC(C(=O)NO)c2ccc(Cl)cc2)cc1 (stereo not drawn) [Example 80, 2-{[4-(2-butynyloxy)phenyl]sulfanyl}-2-(4-chlorophenyl)-N-hydroxyacetamide] | 102 | – | 0 | – | – | 48.8 | 10.9 | 4 |
| CC#CCOc1ccc(S(=O)(=O)C(C(=O)NO)c2ccc(Cl)cc2)cc1 (stereo not drawn) [Example 82, 2-{[4-(2-butynyloxy)phenyl]sulfonyl}-2-(4-chlorophenyl)-N-hydroxyacetamide] | 108 | 5060 | 27.1 | – | – | – | 38 | 14 |
| CC#CCOc1ccc(S(=O)(=O)C(C(=O)NO)C(C)C)cc1 (stereo not drawn) [Example 110, 2-{[4-{2-butynyloxy)phenyl]sulfonyl}-2-isopropyl-N-hydroxyacetamide] | 17 | 1260 | 39.6 | 5140 | – | – | – | 25 |

The next lines start with results.

| IC50 [1] [nM] | IC50 (MMP-13) [nM] | inhibition at 10 µM (MMP-1) [%] | IC50 (MMP-9) [nM] | IC50 (MMP-1) [nM] | inhibition at 10 µM (MMP-13) [%] | inhibition at 10 µM (MMP-9) [%] | Structure (SMILES) | inhibition at 3 µM (THP-1 cells) [%] |
| --- | --- | --- | --- | --- | --- | --- | --- | --- |
| 109 | – | 0.5 | – | – | 47.4 | 0.5 | CC#CCOc1ccc(S(=O)(=O)C(C(=O)NO)c2ccc(F)cc2)cc1 (stereo not drawn) [Example 97, 2-{[4-(2-butynyloxy)phenyl]sulfonyl}-2-(4-fluorophenyl)-N-hydroxyacetamide] | 10 |
| 157 | – | 2.8 | – | – | 59.4 | 56.8 | CC#CCOc1ccc(SC(C(=O)NO)C(C)C)cc1 (stereo not drawn) [Example 107, 2-{[4-(2-Butynyloxy)phenyl]sulfanyl}-2-isopropyl-N-hydroxyacetamide] | -13 |
| 50 | – | 6.6 | – | – | 0.8 | 13.5 | CC#CCOc1ccc(SC(C(=O)NO)c2ccccc2)cc1 (stereo not drawn) [Example 111, 2-{[4-(2-Butynyloxy)phenyl]sulfanyl}-2-phenyl-N-hydroxyacetamide] | -10 |
| 28 | – | 9.9 | – | – | 23.6 | 8.2 | CC#CCOc1ccc([S+]([O-])[C@@H](C(=O)NO)c2ccccc2)cc1 (stereo partly drawn) [Example 112, R-2-{[4-(2-butynyloxy)phenyl]sulfinyl}-2-phenyl-N-hydroxyacetamide] | 15 |
